According to ChEMBL document CHEMBL5291721, “A preclinical secondary pharmacology resource illuminates target-adverse drug reaction associations of marketed drugs” (Nat Commun, 2023):

Tests used:
Mu-type opioid receptor = Mu-type opioid receptor (Homo sapiens, UniProt P35372)
[1] = target: T1, Alpha-2A adrenergic receptor (Homo sapiens, UniProt P08913)
T1 sequence (P08913 whole entry): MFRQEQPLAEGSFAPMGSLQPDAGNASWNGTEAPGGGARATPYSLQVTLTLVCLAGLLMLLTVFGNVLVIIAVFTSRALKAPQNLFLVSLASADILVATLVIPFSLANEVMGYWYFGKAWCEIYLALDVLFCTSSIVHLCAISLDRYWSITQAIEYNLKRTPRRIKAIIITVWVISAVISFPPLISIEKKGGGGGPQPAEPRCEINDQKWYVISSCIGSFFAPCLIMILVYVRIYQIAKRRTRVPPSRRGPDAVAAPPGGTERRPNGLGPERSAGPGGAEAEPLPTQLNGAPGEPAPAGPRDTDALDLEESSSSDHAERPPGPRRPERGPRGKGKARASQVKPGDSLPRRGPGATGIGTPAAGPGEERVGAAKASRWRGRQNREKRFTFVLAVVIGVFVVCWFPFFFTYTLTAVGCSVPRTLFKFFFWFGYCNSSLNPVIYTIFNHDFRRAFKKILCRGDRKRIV

Prothrombin = Prothrombin (Homo sapiens, UniProt P00734); type: functional
Progesterone receptor = target: T2, Progesterone receptor (Homo sapiens, UniProt P06401)
T2 sequence (P06401 whole entry): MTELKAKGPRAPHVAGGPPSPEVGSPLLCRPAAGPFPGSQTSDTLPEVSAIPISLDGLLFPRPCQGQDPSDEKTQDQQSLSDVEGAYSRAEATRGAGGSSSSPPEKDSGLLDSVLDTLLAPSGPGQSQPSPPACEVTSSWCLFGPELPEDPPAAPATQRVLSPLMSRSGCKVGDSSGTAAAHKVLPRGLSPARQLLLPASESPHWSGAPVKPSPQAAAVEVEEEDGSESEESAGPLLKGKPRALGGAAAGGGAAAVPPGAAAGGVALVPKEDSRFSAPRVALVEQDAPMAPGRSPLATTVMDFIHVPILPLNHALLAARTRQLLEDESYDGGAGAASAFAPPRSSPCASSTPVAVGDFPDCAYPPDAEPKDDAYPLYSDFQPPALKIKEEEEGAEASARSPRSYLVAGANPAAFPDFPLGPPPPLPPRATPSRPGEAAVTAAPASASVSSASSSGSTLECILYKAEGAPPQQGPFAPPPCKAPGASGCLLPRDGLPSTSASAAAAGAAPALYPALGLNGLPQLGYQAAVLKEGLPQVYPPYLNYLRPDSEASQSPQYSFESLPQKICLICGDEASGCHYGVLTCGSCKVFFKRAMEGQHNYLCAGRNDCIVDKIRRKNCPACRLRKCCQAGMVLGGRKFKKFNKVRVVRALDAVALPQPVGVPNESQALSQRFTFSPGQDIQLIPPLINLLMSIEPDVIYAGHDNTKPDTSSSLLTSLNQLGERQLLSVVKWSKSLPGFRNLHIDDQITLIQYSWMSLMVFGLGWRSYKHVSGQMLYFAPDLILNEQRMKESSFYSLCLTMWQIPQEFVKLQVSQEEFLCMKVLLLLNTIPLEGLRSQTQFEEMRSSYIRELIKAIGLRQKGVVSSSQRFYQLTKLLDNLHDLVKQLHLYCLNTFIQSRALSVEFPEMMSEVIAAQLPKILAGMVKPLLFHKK

[2] = target: T3, Muscarinic acetylcholine receptor M1 (Homo sapiens, UniProt P11229); type: functional, cell-based
T3 sequence (P11229 whole entry): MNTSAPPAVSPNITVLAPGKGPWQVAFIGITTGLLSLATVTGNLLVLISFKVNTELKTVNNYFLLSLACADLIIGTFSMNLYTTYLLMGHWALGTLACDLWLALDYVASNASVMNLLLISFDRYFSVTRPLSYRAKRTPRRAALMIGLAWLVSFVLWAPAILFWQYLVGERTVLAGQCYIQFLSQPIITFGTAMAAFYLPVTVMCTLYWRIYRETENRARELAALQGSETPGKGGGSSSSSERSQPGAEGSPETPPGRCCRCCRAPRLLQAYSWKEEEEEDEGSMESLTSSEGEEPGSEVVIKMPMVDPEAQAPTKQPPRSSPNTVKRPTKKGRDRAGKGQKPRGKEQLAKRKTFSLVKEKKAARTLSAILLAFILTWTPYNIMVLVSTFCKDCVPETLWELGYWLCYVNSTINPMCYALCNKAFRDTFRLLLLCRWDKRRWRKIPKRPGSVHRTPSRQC

[3] = target: T4, Prostaglandin G/H synthase 1 (Homo sapiens, UniProt P23219); type: functional
T4 sequence (P23219 whole entry): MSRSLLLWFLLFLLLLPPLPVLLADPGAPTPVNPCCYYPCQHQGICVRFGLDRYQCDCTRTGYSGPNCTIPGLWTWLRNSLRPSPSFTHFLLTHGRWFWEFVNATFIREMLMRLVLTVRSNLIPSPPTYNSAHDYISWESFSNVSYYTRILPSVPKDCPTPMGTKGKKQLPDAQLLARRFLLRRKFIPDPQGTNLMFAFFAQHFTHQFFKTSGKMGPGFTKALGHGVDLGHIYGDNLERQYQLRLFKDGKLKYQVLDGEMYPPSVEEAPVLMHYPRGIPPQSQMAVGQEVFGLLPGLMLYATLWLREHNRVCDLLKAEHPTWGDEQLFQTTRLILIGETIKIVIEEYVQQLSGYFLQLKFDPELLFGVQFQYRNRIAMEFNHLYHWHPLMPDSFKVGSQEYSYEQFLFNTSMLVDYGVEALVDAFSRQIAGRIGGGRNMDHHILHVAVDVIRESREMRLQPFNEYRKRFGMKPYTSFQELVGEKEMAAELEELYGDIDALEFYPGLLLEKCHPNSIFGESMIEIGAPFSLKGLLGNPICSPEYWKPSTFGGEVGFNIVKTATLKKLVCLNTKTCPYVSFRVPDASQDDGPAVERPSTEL

[4] = target: 5-hydroxytryptamine receptor 2B (Homo sapiens, UniProt P41595); type: functional, cell-based
5-hydroxytryptamine receptor 2B, sequence (P41595 whole entry): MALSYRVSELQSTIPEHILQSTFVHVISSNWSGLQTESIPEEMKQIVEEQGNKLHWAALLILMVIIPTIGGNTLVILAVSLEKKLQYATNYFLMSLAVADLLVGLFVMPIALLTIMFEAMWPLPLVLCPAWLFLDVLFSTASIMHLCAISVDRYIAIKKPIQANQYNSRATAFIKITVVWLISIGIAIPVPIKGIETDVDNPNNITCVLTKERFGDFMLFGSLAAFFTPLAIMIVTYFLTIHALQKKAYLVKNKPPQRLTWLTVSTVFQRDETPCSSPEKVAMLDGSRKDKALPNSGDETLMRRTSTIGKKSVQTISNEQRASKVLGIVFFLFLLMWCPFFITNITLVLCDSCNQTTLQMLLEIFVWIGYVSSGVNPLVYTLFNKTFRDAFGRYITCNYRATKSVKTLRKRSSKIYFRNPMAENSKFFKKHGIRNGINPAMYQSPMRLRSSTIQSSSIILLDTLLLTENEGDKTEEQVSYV

[5] = target: 3',5'-cyclic-AMP phosphodiesterase 4A (Homo sapiens, UniProt P27815); type: functional
3',5'-cyclic-AMP phosphodiesterase 4A, sequence (P27815 whole entry): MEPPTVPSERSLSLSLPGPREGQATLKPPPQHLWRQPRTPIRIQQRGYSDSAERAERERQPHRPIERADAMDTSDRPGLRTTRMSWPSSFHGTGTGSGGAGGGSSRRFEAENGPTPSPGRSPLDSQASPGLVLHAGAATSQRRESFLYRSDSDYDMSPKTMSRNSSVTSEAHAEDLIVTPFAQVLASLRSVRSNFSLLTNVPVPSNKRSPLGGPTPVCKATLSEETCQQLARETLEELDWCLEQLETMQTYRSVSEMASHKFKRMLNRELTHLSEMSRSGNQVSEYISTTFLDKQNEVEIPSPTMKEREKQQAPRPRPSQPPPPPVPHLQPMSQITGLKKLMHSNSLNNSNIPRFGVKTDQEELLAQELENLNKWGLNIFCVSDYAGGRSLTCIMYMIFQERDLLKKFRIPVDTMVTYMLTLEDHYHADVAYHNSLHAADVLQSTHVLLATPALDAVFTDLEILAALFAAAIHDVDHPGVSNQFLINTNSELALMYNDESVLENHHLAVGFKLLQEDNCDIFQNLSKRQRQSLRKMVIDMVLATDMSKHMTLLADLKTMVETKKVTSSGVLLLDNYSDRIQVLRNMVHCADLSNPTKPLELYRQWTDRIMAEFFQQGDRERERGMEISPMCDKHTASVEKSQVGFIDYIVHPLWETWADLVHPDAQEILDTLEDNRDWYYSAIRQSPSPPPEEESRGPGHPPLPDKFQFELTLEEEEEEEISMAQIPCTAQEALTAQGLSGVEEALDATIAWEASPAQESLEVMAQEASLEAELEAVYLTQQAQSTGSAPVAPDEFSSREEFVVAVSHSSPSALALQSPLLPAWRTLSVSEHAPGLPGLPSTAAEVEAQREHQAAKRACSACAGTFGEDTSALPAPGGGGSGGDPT

Histamine H3 receptor = Histamine H3 receptor (Homo sapiens, UniProt Q9Y5N1)
Histamine H3 receptor, sequence (Q9Y5N1 whole entry): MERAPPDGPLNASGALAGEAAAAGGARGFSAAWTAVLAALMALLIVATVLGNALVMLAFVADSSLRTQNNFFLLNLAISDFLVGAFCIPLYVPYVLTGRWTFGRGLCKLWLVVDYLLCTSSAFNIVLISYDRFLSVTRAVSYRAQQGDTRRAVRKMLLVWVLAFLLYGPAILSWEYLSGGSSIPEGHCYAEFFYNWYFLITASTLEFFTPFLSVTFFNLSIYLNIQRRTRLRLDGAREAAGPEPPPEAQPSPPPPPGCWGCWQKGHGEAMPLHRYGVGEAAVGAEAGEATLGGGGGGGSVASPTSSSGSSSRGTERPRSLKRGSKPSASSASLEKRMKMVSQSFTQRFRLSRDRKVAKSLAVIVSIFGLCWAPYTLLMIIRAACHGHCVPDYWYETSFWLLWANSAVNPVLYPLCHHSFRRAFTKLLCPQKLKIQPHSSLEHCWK

[6] = target: T4, Prostaglandin G/H synthase 1; type: functional; remark: listed apart in the source
[7] = target: T5, Alpha-1A adrenergic receptor (Homo sapiens, UniProt P35348); type: functional, cell-based
T5 sequence (P35348 whole entry): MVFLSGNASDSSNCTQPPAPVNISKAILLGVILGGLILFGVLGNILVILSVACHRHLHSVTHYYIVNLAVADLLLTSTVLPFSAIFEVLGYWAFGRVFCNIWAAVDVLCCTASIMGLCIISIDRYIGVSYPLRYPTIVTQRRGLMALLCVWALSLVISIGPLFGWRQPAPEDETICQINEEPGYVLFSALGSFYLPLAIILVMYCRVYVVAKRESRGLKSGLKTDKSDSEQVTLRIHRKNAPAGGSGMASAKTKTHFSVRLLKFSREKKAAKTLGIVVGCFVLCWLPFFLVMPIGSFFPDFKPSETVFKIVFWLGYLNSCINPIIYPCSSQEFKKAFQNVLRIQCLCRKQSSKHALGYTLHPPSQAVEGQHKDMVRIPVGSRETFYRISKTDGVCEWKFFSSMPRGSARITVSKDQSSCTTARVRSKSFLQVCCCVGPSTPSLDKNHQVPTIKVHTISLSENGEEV
Also: assay procedure not described here.

Mu-type opioid receptor, sequence (P35372 whole entry): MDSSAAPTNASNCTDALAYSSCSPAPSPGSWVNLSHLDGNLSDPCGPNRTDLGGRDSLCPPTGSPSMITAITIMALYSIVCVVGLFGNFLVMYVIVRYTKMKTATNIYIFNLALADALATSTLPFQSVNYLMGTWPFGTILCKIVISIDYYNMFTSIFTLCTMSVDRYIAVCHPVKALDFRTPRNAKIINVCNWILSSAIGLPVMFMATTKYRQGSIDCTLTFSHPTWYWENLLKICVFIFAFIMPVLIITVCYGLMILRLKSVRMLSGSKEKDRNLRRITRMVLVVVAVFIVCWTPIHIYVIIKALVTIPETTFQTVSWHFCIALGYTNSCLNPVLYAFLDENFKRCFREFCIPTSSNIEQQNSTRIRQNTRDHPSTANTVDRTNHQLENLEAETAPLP

| Structure (SMILES) | AC50 (Mu-type opioid receptor) [µM] | AC50 [1] [µM] | AC50 (Prothrombin) [µM] | AC50 (Progesterone receptor) [µM] | AC50 [2] [µM] | AC50 [3] [µM] | AC50 [4] [µM] | AC50 [5] [µM] | AC50 (Histamine H3 receptor) [µM] | AC50 [6] [µM] | AC50 [7] [µM] |
| --- | --- | --- | --- | --- | --- | --- | --- | --- | --- | --- | --- |
| CCN(CC)CCNc1ccc(CO)c2sc3ccccc3c(=O)c12 [HYCANTHONE] | 23 | 1.73 | > 30 | > 30 | > 30 | > 30 | > 30 | > 30 | 2.14 | > 30 | 1.4 |
| NC1CCN(c2c(F)cc3c(=O)c(C(=O)O)cn(C4CC4)c3c2Cl)C1 (stereo unspecified) [CLINAFLOXACIN] | 4.91 | > 30 | > 30 | > 30 | > 30 | > 30 | > 30 | > 30 | > 30 | > 30 | > 30 |
| CC(CNC(=O)c1ccccc1)C(=O)OCC(=O)[C@@]12OC(C)(C)O[C@@H]1C[C@H]1[C@@H]3CCC4=CC(=O)C=C[C@]4(C)[C@@]3(F)[C@@H](O)C[C@@]12C (stereo partly specified) [TRIAMCINOLONE BENETONIDE] | > 30 | > 30 | > 30 | > 30 | > 30 | > 30 | > 30 | > 30 | > 30 | > 30 | > 30 |
| Nc1ccncc1N [AMIFAMPRIDINE] | > 30 | > 30 | > 30 | > 30 | > 30 | > 30 | > 30 | > 30 | > 30 | > 30 | > 30 |
| CN1CCN(C2=Nc3ccccc3Sc3ccc(Cl)cc32)CC1 [CLOTHIAPINE] | 1.1 | 3.47 | > 30 | > 30 | > 10 | > 30 | > 30 | > 30 | > 30 | > 30 | 0.01 |
| Cc1cc(OP(=O)(O)O)c2ccccc2c1OP(=O)(O)O [MENADIOL SODIUM DIPHOSPHATE] | > 30 | > 30 | > 30 | > 30 | > 30 | > 30 | > 30 | > 30 | > 30 | > 30 | > 30 |
| CC(=O)OCC1=C(C(=O)O)N2C(=O)[C@@H](NC(=O)[C@H](N)c3ccccc3)[C@H]2SC1 [CEPHALOGLYCIN] | > 30 | > 30 | > 30 | > 30 | > 30 | 5.93 | > 30 | > 30 | > 30 | 26.5 | > 30 |
| Cc1cc(NS(=O)(=O)c2ccc(N)cc2)nc(C)n1 [SULFISOMIDINE] | > 30 | > 30 | > 30 | > 30 | > 30 | > 30 | > 30 | 3.58 | > 30 | > 30 | > 30 |
| CCN(CC)CCc1nc(-c2ccccc2)no1 [OXOLAMINE] | > 30 | > 30 | > 30 | > 30 | > 30 | > 30 | > 30 | > 30 | 23.9 | > 30 | > 30 |
| O=C(Nc1ccc(Cl)cc1)Nc1ccc(Cl)c(Cl)c1 [TRICLOCARBAN] | 4.85 | > 30 | > 30 | > 30 | > 30 | > 30 | > 30 | 25.4 | > 30 | > 30 | 2.44 |
| OC(CCN1CCCCC1)(c1ccccc1)c1ccccc1 [PRIDINOL] | 19.4 | > 30 | > 30 | > 30 | > 30 | > 30 | > 30 | > 30 | > 30 | > 30 | > 30 |
| OC[C@@H](O)[C@H](O)[C@@H](O)CO [XYLITOL] | > 30 | > 30 | > 30 | > 30 | > 30 | > 30 | > 30 | > 30 | > 30 | > 30 | > 30 |
| NNc1nnc(NN)c2ccccc12 [DIHYDRALAZINE] | 25.6 | > 30 | > 30 | – | > 30 | 0.344 | > 30 | > 30 | > 30 | 0.434 | > 30 |
| COc1ccc2c(c1)N(C[C@H](C)CN(C)C)c1ccccc1S2 [LEVOMEPROMAZINE] | 13.5 | – | > 30 | > 30 | > 30 | 11.3 | > 30 | > 30 | > 30 | > 30 | – |
| CC(C)C[C@H]1C(=O)N2CCC[C@H]2[C@]2(O)O[C@](NC(=O)[C@@H]3C[C@@H]4c5cccc6[nH]cc(c56)C[C@H]4N(C)C3)(C(C)C)C(=O)N12 [DIHYDROERGOCRYPTINE] | 10.3 | 0.847 | > 30 | > 30 | > 30 | 18.4 | > 30 | > 30 | > 30 | 27.4 | – |
| Nc1ccc2cc3ccc(N)cc3nc2c1 [PROFLAVINE] | 3.64 | 7.27 | 9.65 | > 30 | > 0.3 | 22.1 | > 30 | > 30 | 16.3 | 5.49 | – |
